SMILES strings stand for the structures.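 Method: 48-hour compound exposure of cells in 96-well plates, five concentrations, linear interpolation of endpoints. The concentration for 50% growth inhibition is given as GI50. At the TGI there is no net growth.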 *1 amine or outer side, *2 acyl side, *3 side chain or, on linkers, in order; H or OH if unused. Where a SMILES comes first, the peptide text is derived from it. Bridges are numbered along the chain shown (N, C = ends). [ ]: non-standard residue; d: D form. The star is where a group is joined. Phe(3,5-F2) = N[C@@H](Cc1cc(F)cc(F)c1)C(=O)O; Pro(4R-Me) = C[C@H]1CN[C@H](C(=O)O)C1; aThr = C[C@H](O)[C@H](N)C(=O)O; Pip = O=C(O)[C@@H]1CCCCN1; X10 = Fc1cc(C2CC2)ccc1N*; CO = O=C([*:1])[*:2]

This passage reports TGI and GI50 results from PubChem BioAssay (NCI).

What all share (experiment): NCI anticancer screen, dose series, 48 h
For assay [1], the system named is HCC-2998 colon.
Assay [2] relates to HL-60(TB) leukemia.
The test system of assay [3] is HS 578T breast.
The test system of assay [4] is KM12 colon.
The test system of assay [5] is MDA-MB-435.
Assay [6] concerns NCI-H23 lung.
The test system of assay [7] is OVCAR-5 ovarian.
The test system of assay [8] is RPMI-8226 leukemia.
For assay [9], the system named is RXF 393 renal.
For assay [10], the system named is SK-MEL-2 melanoma.

Consider `Cc1cnc(NCCCN(C)C)c2c1[nH]c1ccc3cc(O)ccc3c12`, for which the TGI in assay [1] was determined as 1.98 µM; in [2], 8.37 µM; in assay [3], 2.22 µM; in assay [4], 10 µM; in assay [5] it was 2.3 µM; in [6], 2.04 µM. Besides, the TGI in assay [7] was found to be 3.95 µM; in [8], 10.1 µM; in assay [9], 2.16 µM; in [10], 2.47 µM.
`CC1CCc2nc[nH]c(=O)c21` (stereo not given): the GI50 in assay [1], in assay [2], in assay [3], in [4], in assay [5] and in assay [6] was greater than 100 µM throughout. The GI50 in assay [7], in assay [8], in assay [9] and in assay [10] was greater than 100 µM throughout. The TGI in assay [1], in [2], in assay [3], in [4], in assay [5] and in [6] was greater than 100 µM throughout. Further, the TGI in [7], in [8], in [9] and in assay [10] was greater than 100 µM in each case.
As for `O=[N+]([O-])c1ccc2c(c1)/C(=N/N=C1c3ccccc3Cc3ccccc31)c1cc([N+](=O)[O-])cc([N+](=O)[O-])c1-2`, the TGI in [1] was 12.8 µM; in [2], greater than 22.8 µM; in assay [3], 6.81 µM; in assay [4], 6.34 µM; in assay [5] it was 3.38 µM; in assay [6], 3.85 µM. Also, the TGI in assay [7] was 6 µM; in assay [8] it was greater than 100 µM; in assay [9], 8.59 µM; in [10] it was 24.8 µM.
Consider `O=C(Nc1ccc(F)cc1)Nc1ccc(Cl)c([N+](=O)[O-])c1`, for which the GI50 in assay [1] was 3.71 µM; in assay [2], 2.5 µM; in assay [3], 4.02 µM; in [4] it was 3.3 µM; in assay [5] it was 3.07 µM; in [6], 2.62 µM. Moreover, the GI50 was 3.55 µM in assay [7], 1.89 µM in assay [8], 1.75 µM in assay [9] and 2.32 µM in assay [10]. Besides, the TGI in [1] worked out at 14.3 µM; in assay [2], 8.56 µM; in assay [3], 24.2 µM; in assay [4] it was 13.8 µM; in [5], 11.6 µM; in assay [6], 10.7 µM. For the same molecule, the TGI came to 14.9 µM in [7], 8.58 µM in [8], 6.71 µM in [9] and 5.83 µM in assay [10].
In the case of `C[C@@H]1C[C@H]2C(=O)O[C@@H](C)[C@H](NC(=O)[C@H](Cc3cc(F)cc(F)c3)NC(=O)Nc3ccc(C4CC4)cc3F)C(=O)N3CCC[C@H]3C(=O)N3CCCC[C@H]3C(=O)N[C@@H](C)C(=O)N2C1` ({X10-CO}-[Phe(3,5-F2)][aThr]P[Pip]A[Pro(4R-Me)]; ester 2-C), the GI50 in assay [1] is 0.0402 µM; in assay [2] it was 0.0387 µM; in [3], 0.0409 µM; in assay [4], 0.0909 µM; in [5] it was 0.0423 µM; in [6], 0.0522 µM. Moreover, the GI50 in [7] was 0.0575 µM; in [8] it was 0.0287 µM; in [9] it was 0.233 µM; in assay [10], 0.0549 µM. Besides, the TGI in assay [1] stood at 1.78 µM; in assay [2], 1.82 µM; in assay [3], 3.94 µM; in assay [4], 10.3 µM; in assay [5], 2.71 µM; in assay [6] it was 35.3 µM. In addition, the TGI in assay [7] is 3.39 µM; in assay [8], 0.878 µM; in assay [9] it was 3.99 µM; in [10] it was 3.83 µM.
`Fc1[nH]nc2ccc([C@@H]3Nc4ccc5[nH]ncc5c4[C@H]4C5CCC(C5)[C@@H]34)cc12` (stereo not given in full): the GI50 in [1] is 3.14 µM; in assay [2] it was 0.348 µM; in [3], 1.4 µM; in assay [4] it was 0.559 µM; in [5] it was 0.286 µM; in assay [6] it was 2.8 µM. For the same molecule, the GI50 is 3.06 µM in assay [7], 1.42 µM in assay [8], 1.22 µM in assay [9] and 0.913 µM in assay [10]. Also, the TGI in assay [1] worked out at 12.8 µM; in assay [2], 1.69 µM; in assay [3], 13.6 µM; in [4], 11.5 µM; in assay [5], 1.08 µM; in assay [6], 15.9 µM. Besides, the TGI in assay [7] was 14.6 µM; in assay [8] it was 16.7 µM; in assay [9], 7.8 µM; in assay [10], 12.2 µM.
For the molecule `C=C(C)C(OC)C(O)CC1(C)CC(O)CC(C)(C2CCC3OC(C4(C)CCC(Br)C(C)(C)O4)CCC3(C)O2)O1` (stereo not given), the GI50 in assay [1] is 14.8 µM; in assay [2], 17.1 µM; in assay [3] it was 23.9 µM; in [4], 17.5 µM; in [5], 19.8 µM; in assay [6], 16 µM. Further, the GI50 is 20.5 µM in assay [7], 12.7 µM in assay [8], 18.3 µM in [9] and 18.1 µM in assay [10]. The TGI in assay [1] is 30.1 µM; in assay [2] it was greater than 56.7 µM; in assay [3], 52.9 µM; in [4], 36.7 µM; in assay [5], 46.3 µM; in [6], 34.6 µM. Further, the TGI in assay [7] was found to be 38.7 µM; in assay [8], 38.1 µM; in assay [9], 40.4 µM; in [10], 36.5 µM.
For `NC(N)=NS(=O)(=O)c1ccc(Nc2c3ccccc3nc3c(C(=O)NCCO)cccc23)cc1`, the GI50 in assay [1] was 0.0928 µM; in assay [2] it was 16.9 µM; in assay [3], 21.3 µM; in assay [4] it was 15.4 µM; in assay [5] it was 23.3 µM; in assay [6], 26.3 µM. The GI50 was 22.4 µM in assay [7], 15 µM in assay [8], 19.6 µM in [9] and 26.6 µM in assay [10].
